# Values of other authors in US20100279974A1, “Nucleosides With Non-Natural Bases as Anti-Viral Agents” (priority 2005, published 2010).
# Settings: in vivo
structure (smiles),measurement,value
NC(=O)c1nccn(C2OC(COP(=O)(O)OP(=O)(O)OP(=O)(O)O)C(O)C2O)c1=O (centres unmarked),antiviral activity,exhibits antiviral activity in vivo
NC(=O)c1nccn([C@@H]2O[C@H](CO)[C@@H](O)[C@H]2O)c1=O [non-phosphorylated nucleoside form],antiviral activity,appears to be inactive
